How the values were obtained:
E. coli = assay: MIC of imipenem, ertapenem and meropenem; format: cell-based, Escherichia coli
P. stuartii = assay: MIC of imipenem, ertapenem and meropenem; format: cell-based, Providencia stuartii
P. rettgeri = assay: MIC of imipenem, ertapenem and meropenem; format: cell-based, Providencia rettgeri
enterobacterial isolates = assay: MIC of imipenem, ertapenem and meropenem (groups of isolates, other species); format: cell-based, Enterobacteriaceae

C[C@@H](O)[C@H]1C(=O)N2C(C(=O)O)=C(S[C@@H]3CN[C@H](C(=O)N(C)C)C3)[C@H](C)[C@H]12 [MEM, meropenem]
MIC (E. coli; E. coli 1008 (TEM-1 + CTX-M-1)): 0.016 mg/L
MIC (E. coli; E. coli 1008, CTX-M-1 + TEM-1, non-carbapenemase producer): 0.016 mg/L
MIC (E. coli; E. coli 1020, CTX-M-1 + TEM-1, non-carbapenemase producer): 0.016 mg/L
MIC (E. coli; E. coli 1023, CTX-M-2 + TEM-1, non-carbapenemase producer): 0.016 mg/L
MIC (E. coli; E. coli 1033, CTX-M-15, non-carbapenemase producer): 0.016 mg/L
MIC (E. coli; E. coli 1034 (TEM-1 + SHV-38)): 0.016 mg/L
MIC (E. coli; E. coli 1034, TEM-1 + SHV-38, non-carbapenemase producer): 0.016 mg/L
MIC (E. coli; E. coli 1048 (TEM-1 + SHV-2a)): 0.016 mg/L
MIC (E. coli; E. coli 1048, TEM-1 + SHV-2a, non-carbapenemase producer): 0.016 mg/L
MIC (E. coli; E. coli 1082 (TEM-1)): 0.016 mg/L
MIC (E. coli; E. coli 1082, TEM-1, non-carbapenemase producer): 0.016 mg/L
MIC (E. coli; E. coli 1092 (OXA-1)): 0.023 mg/L
MIC (E. coli; E. coli 1092, OXA-1, non-carbapenemase producer): 0.023 mg/L
MIC (E. coli; E. coli 6252, (wild type), non-carbapenemase producer): 0.008 mg/L
MIC (E. coli; E. coli 6367 (wild type)): 0.012 mg/L
MIC (E. coli; E. coli 6367, (wild type), non-carbapenemase producer): 0.012 mg/L
MIC (E. coli; E. coli 10121 (CTX-M-2)): 0.016 mg/L
MIC (E. coli; E. coli 10121, CTX-M-2, non-carbapenemase producer): 0.016 mg/L
MIC (E. coli; E. coli 10122, CTX-M-1 + TEM-1, non-carbapenemase producer): 0.016 mg/L
MIC (E. coli; E. coli 0404018, VIM-1+ CMY-6): 1 mg/L
MIC (E. coli; E. coli 1008077, VIM-1+ TEM-1 + CTX-M-15): 4 mg/L
MIC (E. coli; E. coli 1108013, IMP-1 + TEM-1): 1 mg/L
MIC (E. coli; E. coli ALL (NDM-1 + OXA-1 + OXA-2 + CTX-M-15 + TEM-1)): 8 mg/L
MIC (E. coli; E. coli ALL, NDM-1 + TEM-1 + CTX-M-15 + OXA-1 + OXA-2): 8 mg/L
MIC (E. coli; E. coli AME (OXA-48 + CTX-M-24)): 0.19 mg/L
MIC (E. coli; E. coli AME, OXA-48 + CTX-M-24): 0.19 mg/L
MIC (E. coli; E. coli AUS (NDM-1 + CTX-M-15 + TEM-1)): 16 mg/L
MIC (E. coli; E. coli AUS, NDM-1 + TEM-1 + CTX-M-15): 16 mg/L
MIC (E. coli; E. coli BER (OXA-48 + CTX-M-15)): 0.19 mg/L
MIC (E. coli; E. coli BER, OXA-48 + TEM-1 + CTX-M-15): 0.19 mg/L
MIC (E. coli; E. coli BOK (OXA-48 + CTX-M-15)): 0.19 mg/L
MIC (E. coli; E. coli BOK, OXA-48 + CTX-M-15): 0.19 mg/L
MIC (E. coli; E. coli BON (OXA-48 + CTX-M-24 + TEM-1)): 0.19 mg/L
MIC (E. coli; E. coli BON, OXA-48 + TEM-1 + CTX-M-24): 0.19 mg/L
MIC (E. coli; E. coli BOU (OXA-48 + CTX-M-15)): 0.125 mg/L
MIC (E. coli; E. coli BOU, OXA-48 + CTX-M-15): 0.125 mg/L
MIC (E. coli; E. coli COL (KPC-2)): 2 mg/L
MIC (E. coli; E. coli COL, KPC-2 + TEM-1 + CTX-M-9): 2 mg/L
MIC (E. coli; E. coli DIH (VIM-19)): 4 mg/L
MIC (E. coli; E. coli DIH, VIM-19): 4 mg/L
MIC (E. coli; E. coli DIN, KPC-2 + TEM-1 + OXA-1): 0.5 mg/L
MIC (E. coli; E. coli E14 (CTX-M-14)): 0.12 mg/L
MIC (E. coli; E. coli E14, CTX-M-14, non-carbapenemase producer): 0.012 mg/L
MIC (E. coli; E. coli ECA, ACC-1, non-carbapenemase producer): 0.012 mg/L
MIC (E. coli; E. coli EVB, VEB-1, non-carbapenemase producer): 0.012 mg/L
MIC (E. coli; E. coli FOR, CTX-M-15, non-carbapenemase producer): 0.012 mg/L
MIC (E. coli; E. coli GEN (NDM-1 + OXA-1 + CMY-30 + TEM-1)): 12 mg/L
MIC (E. coli; E. coli GEN, NDM-1 + TEM-1 + CMY-30 + OXA-1): 12 mg/L
MIC (E. coli; E. coli GOG (OXA-48 + CTX-M-24)): 0.25 mg/L
MIC (E. coli; E. coli GUE (NDM-1 + OXA-1 + TEM-1)): 2 mg/L
MIC (E. coli; E. coli GUE, NDM-1 + TEM-1 + OXA-1): 2 mg/L
MIC (E. coli; E. coli HAN (OXA-48 + CTX-M-15)): 1 mg/L
MIC (E. coli; E. coli HAN, OXA-48 + CTX-M-15): 1 mg/L
MIC (E. coli; E. coli HB4 (OmpC-, OmpF-)): 0.25 mg/L
MIC (E. coli; E. coli HB4, (OmpC-, OmpF-), non-carbapenemase producer, porin deficiency): 0.25 mg/L
MIC (E. coli; E. coli IR5 (NDM-1 + CTX-M-15 + TEM-1)): 16 mg/L
MIC (E. coli; E. coli IR5, NDM-1 + TEM-1 + CTX-M-15): 16 mg/L
MIC (E. coli; E. coli JAP (IMP-1)): 0.5 mg/L
MIC (E. coli; E. coli JAP, IMP-1): 0.5 mg/L
MIC (E. coli; E. coli LIL, KPC-2 + TEM-1 + OXA-9): 1 mg/L
MIC (E. coli; E. coli MAD (VIM-1 + CTX-M-3)): 0.5 mg/L
MIC (E. coli; E. coli MAD, VIM-1+ CTX-M-3): 0.5 mg/L
MIC (E. coli; E. coli MAR (Overexpressed AmpC)): 2 mg/L
MIC (E. coli; E. coli MAR, Overexpressed AmpC, non-carbapenemase producer): 2 mg/L
MIC (E. coli; E. coli MET, Chromosome-encoded extended-spectrum cephalosporinase, non-carbapenemase producer): 0.012 mg/L
MIC (E. coli; E. coli NAA (OXA-48 + CTX-M-24)): 0.25 mg/L
MIC (E. coli; E. coli OM3, OXA-48 + TEM-1 + CTX-M-15): 0.38 mg/L
MIC (E. coli; E. coli OM20, NDM-1 + TEM-1 + CTX-M-15): 8 mg/L
MIC (E. coli; E. coli OM22, OXA-48 + TEM-1 + CTX-M-15): 0.25 mg/L
MIC (E. coli; E. coli PSP (KPC-2)): 0.5 mg/L
MIC (E. coli; E. coli PSP, KPC-2 + TEM-1 + OXA-1): 0.5 mg/L
MIC (E. coli; E. coli RIC (NDM-1 + OXA-1 + OXA-10 + CMY-16)): 1 mg/L
MIC (E. coli; E. coli RIC, NDM-1 + CMY-16 + OXA-1 + OXA-10): 1 mg/L
MIC (E. coli; E. coli ROB (OXA-48)): 0.25 mg/L
MIC (E. coli; E. coli ROB, OXA-48): 0.25 mg/L
MIC (E. coli; E. coli SYD, CMY-2, non-carbapenemase producer): 0.012 mg/L
MIC (E. coli; E. coli TWA, IMP-8 + SHV-12): 3 mg/L
MIC (E. coli; E. coli ZAN, OXA-48 + TEM-1 + CTX-M-14): 0.75 mg/L
MIC (E. coli; strain E. coli 1008, TEM-1 + CTX-M-1, non-carbapenemase producer): 0.016 mg/L
MIC (E. coli; strain E. coli 1034, TEM-1 + SHV-38, non-carbapenemase producer): 0.016 mg/L
MIC (E. coli; strain E. coli 1048, TEM-1 + SHV-2a, non-carbapenemase producer): 0.016 mg/L
MIC (E. coli; strain E. coli 10121, CTX-M-2, non-carbapenemase producer): 0.016 mg/L
MIC (E. coli; strain E. coli AME, OXA-48 + CTX-M-24): 0.19 mg/L
MIC (E. coli; strain E. coli BON, OXA-48 + TEM-1 + CTX-M-24): 0.19 mg/L
MIC (E. coli; strain E. coli ECA, ACC-1, non-carbapenemase producer): 0.012 mg/L
MIC (E. coli; strain E. coli EVB, VEB-1, non-carbapenemase producer): 0.012 mg/L
MIC (E. coli; strain E. coli FOR, CTX-M-15, non-carbapenemase producer): 0.012 mg/L
MIC (E. coli; strain E. coli HB4, (OmpC-, OmpF-), non-carbapenemase producer): 0.25 mg/L
MIC (E. coli; strain E. coli JAP, IMP-1): 0.5 mg/L
MIC (E. coli; strain E. coli MAR, Overexpressed AmpC, non-carbapenemase producer): 2 mg/L
MIC (E. coli; strain E. coli MET, Chromosome-encoded extended-spectrum cephalosporinase, non-carbapenemase producer): 0.012 mg/L
MIC (E. coli; strain E. coli ROB, OXA-48): 0.25 mg/L
MIC (E. coli; strain E. coli SYD, CMY-2, non-carbapenemase producer): 0.012 mg/L
MIC (P. stuartii; P. stuartii NDM (NDM-1 + OXA-1 + CMY-6)): 1.5 mg/L
MIC (P. stuartii; P. stuartii PS1 (NDM-1 + CMY-6 + OXA-1)): 1.5 mg/L
MIC (P. stuartii; P. stuartii PS1, NDM-1 + CMY-6 + OXA-1): 1.5 mg/L
MIC (P. stuartii; strain P. stuartii PS1, NDM-1 + CMY-6 + OXA-1): 1.5 mg/L
MIC (P. rettgeri; P. rettgeri RAP (OXA-181 + OXA-1)): 2 mg/L
MIC (P. rettgeri; P. rettgeri RAP, OXA-181 + OXA-1): 2 mg/L
MIC (P. rettgeri; strain P. rettgeri RAP, OXA-181 + OXA-1): 2 mg/L
MIC (enterobacterial isolates; S. marcescens 0911033, IMP-1): >32 mg/L
MIC (enterobacterial isolates; S. marcescens 1008091, VIM-1+ CTX-M-15): >32 mg/L
MIC (enterobacterial isolates; S. marcescens C7052, KPC-2 + TEM-1 + SHV-12): >32 mg/L
MIC (enterobacterial isolates; S. marcescens D6403, KPC-2 + TEM-1): >32 mg/L
